Series [1] addresses T1, recombinant human Muscarinic M1 receptor (Homo sapiens, UniProt P11229).
T1 sequence (P11229 1-460): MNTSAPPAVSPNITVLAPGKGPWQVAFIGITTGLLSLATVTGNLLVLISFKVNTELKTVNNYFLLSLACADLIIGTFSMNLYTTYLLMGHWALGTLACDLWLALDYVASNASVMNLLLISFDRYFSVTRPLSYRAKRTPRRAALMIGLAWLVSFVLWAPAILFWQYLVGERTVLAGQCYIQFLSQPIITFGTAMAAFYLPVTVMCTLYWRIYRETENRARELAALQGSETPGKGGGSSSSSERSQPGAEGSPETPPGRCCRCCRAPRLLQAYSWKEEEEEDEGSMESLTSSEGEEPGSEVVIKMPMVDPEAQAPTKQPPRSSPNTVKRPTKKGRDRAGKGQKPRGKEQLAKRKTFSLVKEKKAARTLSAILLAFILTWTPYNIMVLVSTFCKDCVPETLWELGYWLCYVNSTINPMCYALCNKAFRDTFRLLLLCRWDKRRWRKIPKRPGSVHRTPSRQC
Description: Allosteric potency EC50 for Muscarinic M1 receptor, CHO pCRE-Luc reporter cell-based assay with EC20 of acetylcholine. Particulars: CHO cells, human M1, luciferase reporter, in presence of EC20 of acetylcholine, 4 h. On the procedure: Determination of allosteric potency EC50 values for Muscarinic M1 receptor:
A stable CHO cell line expressing recombinant human Muscarinic M1 receptor and pCRE-Luc reporter system was used for cell-based assay. The assay offers a non-radioactive based approach to determine binding of a compound to GPCRs. In this specific assay, the level of intracellular cyclic AMP which is modulated by activation or inhibition of the receptor is measured. The recombinant cells harbor luciferase reporter gene under the control of cAMP response element.
The above cells were grown in 96 well clear bottom white plates in Hams F12 medium containing 10% fetal bovine serum (FBS). Prior to the addition of compounds or standard agonist, cells were serum starved overnight. Increasing concentrations of test compounds were added along with EC20 of acetylcholine in OptiMEM medium to the cells. The incubation was continued at 37° C. in CO2 incubator for 4 h. Medium was removed and cells were washed with phosphate buffered saline. The cells were lysed and luciferase activity was measured in a Luminometer. Luminescence counts in each concentrations of test item were normalized to the acetylcholine induced maximum response and the data was analyzed using Graphpad software. EC50 values of the compounds were defined as the concentration required in stimulating the luciferase activity by 50% in presence of EC20 of acetylcholine.

A short description of series [2]: Rodent pharmacokinetic study. The series is classed as in vivo, Male Wistar rats. The conditions noted are these: male, Wistar, rat, plasma; for bioavailability: oral 3 mg/kg vs i.v. 1 mg/kg, read-out: F (bioavailability). On the procedure:
Rodent Pharmacokinetic Study
Male Wistar rats (260±50 grams) were used as experimental animals. Animals were housed individually in polypropylene cage. Two days prior to study, male Wistar rats were anesthetized with isoflurane for surgical placement of jugular vein catheter. Rats were randomly divided for oral (3 mg/kg) and intravenous (i.v) (1 mg/kg) dosing (n=3/group) and fasted overnight before oral dosing (p.o.). However, rats allocated to intravenous (i.v.) dosing food and water was provided ad libitum.
At pre-determined point, blood was collected through jugular vein and replenished with an equivalent volume of normal saline. Collected blood was transferred into a labelled eppendorf tube containing 10 μL of heparin as an anticoagulant. Typically blood samples were collected at following time points: 0.08, 0.25, 0.5, 1, 2, 4, 6, 8, and 24 h post dose. Blood was centrifuged at 4000 rpm for 10 minutes. Plasma was separated and stored frozen at −80° C. until analysis. The concentrations of the test compounds were quantified in plasma by qualified LC-MS/MS method using suitable extraction technique. The test compounds were quantified in the calibration range around 1-1000 ng/mL in plasma. Study samples were analyzed using calibration samples in the batch and quality control samples spread across the batch.
Pharmacokinetic parameters Cmax, Tmax (h), AUCt, T1/2, clearance and bioavailability (F) were calculated by non-compartmental model using standard non-compartmental model by using Phoenix WinNonlin 6.0.2 or 6.0.3 version Software package.

The nature of series [3]: Rodent brain penetration study. The series is classed as in vivo, Male Wistar rats. The conditions noted are these: male, Wistar, brain and plasma, po; rat, 3 mg/kg, p.o. @ 1.0 hr, brain-plasma ratio; read-out: Single dose Rat Brain Penetration (Cb/Cp). On the procedure:
Rodent Brain Penetration Study
Male Wistar rats (260±40 grams) were used as experimental animals. Three animals were housed in each cage. Animals were given water and food ad libitum throughout the experiment and maintained on a 12 h light/dark cycle.
Brain penetration was determined in discrete manner in rats. One day prior to dosing day, male Wistar rats were acclimatized and randomly grouped according to their weight. At each time point (0.5, 1 and 2 h) n=3 animals were used.
The test compounds were suitably preformulated and administered orally at (free base equivalent) 3 mg/kg. Blood samples were removed via cardiac puncture by using isoflurane anesthesia. The animals were sacrificed to collect brain tissue. Plasma was separated and brain samples were homogenized and stored frozen at −20° C. until analysis. The concentrations of the test compounds in plasma and brain were determined using LC-MS/MS method.
The test compounds were quantified in plasma and brain homogenate by qualified LC-MS/MS method using suitable extraction technique. The test compounds were quantified in the calibration range of 1-500 ng/mL in plasma and brain homogenate. Study samples were analyzed using calibration samples in the batch and quality control samples spread across the batch.

For the next series, the system named is Male Wistar rats. Description: Object recognition task model. The series is classed as in vivo. Particulars: rat, p.o.; for Exploration time mean ± S.E.M, Familiar object / Exploration time mean ± S.E.M, Novel object: choice trial 24 h after T1. On the procedure: Object Recognition Task Model
The cognition enhancing properties of compounds of this invention were estimated by using this model.
Male Wistar rats (8-10 weeks old) were used as experimental animals. Four animals were housed in each cage. Animals were kept on 20% food deprivation from a day prior to experimentation. Water was provided ad libitum throughout the experiment. Animals were maintained on a 12 h light/dark cycle in temperature and humidity controlled room. The experiment was carried out in circular arena made up of acrylic. Rats were habituated to individual arenas for up to 45 min in the absence of any objects on day 1.
One group of 12 rats received vehicle and another set of animals received compound of the formula (I), before the familiar (T1) and choice (T2) trials. During the familiarization phase, (T1), the rats were placed individually in the arena for 3 minutes, in which two identical objects (a1 and a2) were positioned 10 cm from the wall. 24 h after T1, trial for long-term memory test was performed. The same rats were placed in the same arena as they were placed in T1 trial. During the choice phase (T2) rats were allowed to explore the arena for 3 minutes in presence of a copy of familiar object (a3) and one novel object (b). During the T1 and T2 trial, explorations of each object (defined as sniffing, licking, chewing or having moving vibrissae whilst directing the nose towards the object at a distance of less than 1 cm) were recorded using stopwatch.
T1 is the total time spent exploring the familiar objects (a1+a2).
T2 is the total time spent exploring the familiar object and novel object (a3+b).
The object recognition test was performed as described by Ennaceur, A., Delacour, J., 1988, A new one-trial test for neurobiological studies of memory in rats—Behavioural data, Behav. Brain Res., 31, 47-59.

In series [4] the test system is hippocampal θ rhythm, anesthetized male Wistar rats. Description: Theta modulation in dorsal hippocampus of anesthetized rats in combination with donepezil. The series is classed as in vivo.
Description: Male Wistar rats (240-320 g) were anesthetized by intraperitoneal administration of urethane (1.2 to 1.5 g/kg) for implantation of a catheter in the left femoral vein. The animal was placed in a stereotaxic frame for implanting an electrode (stainless steel wire, Plastics One) into the dorsal hippocampus (AP: −3.8 mm; ML: +2.2 mm; DV: −2.5 mm; Paxinos and Watson, 2004). Bipolar stimulating electrode (untwisted stainless steel wires, separated by 0.75-1.0 mm at their tips, Plastics One) was implanted in the Nucleus Pontis Oralis (NPO; AP: −7.8 mm; ML: 1.8 mm; DV: −6.0 mm; Paxinos and Watson, 2004). Additionally one electrode was implanted into the cerebellum which served as a reference. Hippocampal θ rhythm was evoked via a 6-s electrical stimulation train (20-160 PA, 0.3-ms pulse duration, 250 Hz) delivered to the NPO at a rate of 0.01 trains/s with a Grass S88 stimulator and PSIU6 stimulus isolation unit (Grass Medical Instruments, Quincy, Mass.). EEG was recorded at a rate of 1000 Hz using Ponemah (Version 5.2) software and stored for off-line analysis using NeuroScore (Version 3.0). Baseline amplitude level was achieved by using the current required to elicit 0 rhythm to 50% of the maximal amplitude under control conditions.
Power in the θ rhythm frequency in the stimulation period during the 30 min baseline period was calculated and the % changes in these measures post treatment were calculated. […] Statistical significance was considered at a p value less than 0.05.

Experimental findings from patent US11278530B2, “Polycyclic amides as muscarinic M1 receptor positive allosteric modulators” (SUVEN LIFE SCIENCES LIMITED, priority 2017, dated 2022) are described below.

As a reminder, the EC50 is the concentration at which the effect is half-maximal. In general, AUC(0-t) refers to exposure summed from dosing to a finite time, without extrapolation to infinity. A higher AUC(0-t) goes with high exposure. As a reminder, the half-life is the time in which the quantity being followed falls by half. One may read the clearance as the volume of plasma or blood freed of the substance per unit of time. Low readings indicate a low capacity for elimination, high ones a high capacity for elimination. Usually Cmax stands for the maximum level reached in the sampled fluid or tissue. By Tmax is commonly meant the time at which the peak concentration occurs.

Regarding `Cc1c(Cc2ccc(-c3cnn(C)c3)cc2F)cc(C(=O)N[C@H]2CCCC[C@@H]2O)c2ncccc12` [Example 11, N-(cis-1S,2S-2-Hydroxycyclohexyl)-6-[2-fluoro-4-(1-methyl-1H-pyrazol-4-yl)-benzyl]-5-methylquinoline-8-carboxamide], the EC50 in series [1] amounted to 100 nM. In series [2] (iv, i.v. 1 mg/kg), the AUC(0-t) turned out to be 12800 ± 2150 ng·h/mL, the half-life is 3.9 ± 0.2 h and the clearance amounted to 1.3 ± 0.2 mL/min/kg. Also, the bioavailability in series [2] was found to be 105 ± 25%. Moreover, in series [2] (oral 3 mg/kg), the AUC(0-t) is 40300 ± 9420 ng·h/mL, the Cmax came to 9690 ± 1420 ng/mL, the Tmax is 1 to 2 h and the half-life was 4.8 ± 1.6 h. Besides, the Kp at 1 h in series [3] amounted to 0.14 ± 0.01. In addition, in the series with Male Wistar rats (0.3 mg/kg), the Inference result is recorded as “Active”; the “Exploration time mean ± S.E.M, Familiar object” value stood at 12.20 ± 1.89 s; the “Exploration time mean ± S.E.M, Novel object” value was determined as 17.33 ± 1.39 s. In addition, in series [4] (Example 11 (1 mg/kg, i.v.) and donepezil (0.3 mg/kg, i.v.) vs donepezil alone), the “Mean area under the curve values (AUC) of θ power change compared with donepezil alone” value was “significantly higher compared to donepezil alone”. In series [4] (Example 11 (1 mg/kg, i.v.) in combination with donepezil (0.3 mg/kg, i.v.) vs donepezil alone), the “effect on θ power of combination treatment compared with donepezil alone” value is listed as “significantly higher than the donepezil alone”. For the same compound, the θ power levels result in series [4] (Example 11 (1 mg/kg, i.v.) in combination with donepezil (0.3 mg/kg, i.v.), anesthetized rat) is “significant increase”.

As to `Cc1c(Cc2ccccc2)cc(C(=O)N[C@H]2CCCC[C@@H]2O)c2ncccc12` [Example 14, N-(cis-1S,2S-2-Hydroxycyclohexyl)-6-benzyl-5-methylquinoline-8-carboxamide], the EC50 in series [1] amounted to 555 nM. In series [2] (iv, i.v. 1 mg/kg), the AUC(0-t) turned out to be 346 ± 25 ng·h/mL, the half-life was 0.8 ± 0.1 h and the clearance was found to be 48 ± 3.4 mL/min/kg. The bioavailability in series [2] worked out at 13 ± 2.7%. In series [2] (oral 3 mg/kg), the AUC(0-t) was found to be 137 ± 28 ng·h/mL, the Cmax amounted to 70 ± 23 ng/mL, the Tmax is 0.5 h and the half-life is 1.9 ± 0.1 h. Further, the Kp at 1 h in series [3] was determined as 1.27 ± 0.07. Besides, in the series with Male Wistar rats (3 mg/kg), the Inference entry was “Active”; the “Exploration time mean ± S.E.M, Familiar object” value was found to be 8.35 ± 1.98 s; the “Exploration time mean ± S.E.M, Novel object” value was found to be 15.54 ± 3.58 s.

In the case of `Cc1c(Cc2ccc(-c3cnn(C)c3)cc2)cc(C(=O)N[C@H]2CCCC[C@@H]2O)c2ncccc12` [Example 15, N-(cis-1S,2S-2-Hydroxycyclohexyl)-6-[4-(1-methyl-1H-pyrazol-4-yl)-benzyl]-5-methylquinoline-8-carboxamide], the EC50 in series [1] was determined as 197 nM. Moreover, in series [2] (iv, i.v. 1 mg/kg), the AUC(0-t) was found to be 6860 ± 1810 ng·h/mL, the half-life was 3.1 ± 0.3 h and the clearance is 2.5 ± 0.6 mL/min/kg. The bioavailability in series [2] was determined as 40 ± 11%. Besides, in series [2] (oral 3 mg/kg), the AUC(0-t) came out at 8190 ± 2180 ng·h/mL, the concentration peaked (Cmax) at 1540 ± 397 ng/mL, the time to peak (Tmax) is 2 h and the half-life is 3.7 ± 0.3 h. Besides, the Kp at 1 h in series [3] came out at 0.78 ± 0.22. In the series on Male Wistar rats (1 mg/kg), the Inference entry was “Active”; the “Exploration time mean ± S.E.M, Familiar object” value was 12.93 ± 1.83 s; the “Exploration time mean ± S.E.M, Novel object” value came to 20.42 ± 3.42 s.

On to `Cc1c(Cc2ccc(-n3cccn3)cc2)cc(C(=O)N[C@H]2CCCC[C@@H]2O)c2c1NCCO2` [Example 17, N-(cis-1S,2S-2-Hydroxycyclohexyl)-6-(4-pyrazol-1-yl-benzyl)-5-methyl-3,4-dihydro-2H-benzo[1,4]oxazine-8-carboxamide], for which the EC50 in series [1] was found to be 1120 nM. In series [2] (iv, i.v. 1 mg/kg), the exposure AUC(0-t) came to 635 ± 70 ng·h/mL, the half-life is 1.3 ± 0.2 h and the clearance was 26 ± 3 mL/min/kg. Besides, in series [2], the bioavailability worked out at 37 ± 6%. For the same compound, in series [2] (oral 3 mg/kg), the area under the curve AUC(0-t) stood at 705 ± 118 ng·h/mL, the peak level (Cmax) was 288 ± 26.5 ng/mL, the Tmax was 1 h and the half-life is 1.3 ± 0.1 h. Also, the Kp at 1 h in series [3] was 0.32 ± 0.06.
